Assay results reported in patent US4504655A, “Substances potentiating the activity of antibiotics and their production” (Takeda Chemical Industries, Ltd., priority 1981, dated 1985).

Columns and labels:
Assay type in all cases: cell-based
[1] = system: Escherichia coli IFO 12734; experiment: Antibiotic-potentiating activity, paper disc growth inhibition zone, Escherichia coli IFO 12734
Method: The potency of the compound of the formula (II) can be determined, for instance, by the cup method or paper disc method using bouillon agar containing 0.05 μg/ml of cefmenoxime with Escherichia coli IFO 12734 as the test organism. […]
(§1) *The test was performed using a bouillon agar medium containing the
antibiotic as specified and a paper disc, 8 mm in diameter.
**A paper disc, 8 mm in diameter, was impregnated with 25 μl of the […]

[2] = system: Proteus mirabilis ATCC 21100; experiment: Antibiotic-potentiating activity, paper disc growth inhibition zone, Proteus mirabilis ATCC 21100
Method: as §1
antibiotic as specified and a paper disc, 8 mm in diameter. […]
*The test was performed under the same conditions as noted for Table 1
except for the test organism and the concentration of each coexisting

[3] = system: Escherichia coli IFO 12734; experiment: Inhibition of growth of Escherichia coli in liquid culture (absorbance at 600 nm); conditions: for Absorbance at 600 nm: 37° C., 2 hours
Method: Table 5: Inhibition of growth of Escherichia coli IFO 12734 in the copresence of F2 (obtained in Example 1) and cephalexin or cefmenoxime.
(§2) To 8 ml of YAB medium (1.75% Difco antibiotic medium No. 3, 0.5% Difco yeast extract) containing 12% (w/v) of sucrose, there were added 1 ml of water, 50 μg/ml cephalexin solution or 10 μg/ml cefmenoxime solution, and the medium was inoculated with 1 ml of a preculture in YAB medium at an early logarithmic growth phase and incubated with shaking at 37° C. for 2 hours. Thereafter, the absorbance of the culture broth was measured at 600 nm using a Shimadzu-Bausch & Lomb Spectronic 20 colorimeter.

Escherichia coli = experiment: Observation of the culture broths under a phase contrast microscope; conditions: in the presence of cephalexin or cefmenoxime
Method: as §2

[4] = system: Escherichia coli IFO 12734; experiment: Inhibition of growth of Escherichia coli in liquid culture (absorbance at 600 nm); conditions: 37° C., 2 hours
[5] = F2 of Example 1, 1 μg/ml in test solution, no addition
[6] = F2 of Example 1, 5 μg/ml in test solution, no addition
[7] = F2 of Example 1, 25 μg/ml in test solution, no addition
[8] = F2 of Example 1, 125 μg/ml in test solution, no addition
[9] = F2 of Example 1, 1000 μg/ml in test solution, no addition
[10] = F2 of Example 3, 1 μg/ml in test solution, no addition
[11] = F2 of Example 3, 5 μg/ml in test solution, no addition
[12] = F2 of Example 3, 25 μg/ml in test solution, no addition
[13] = F2 of Example 3, 125 μg/ml in test solution, no addition
[14] = F2 of Example 3, 1000 μg/ml in test solution, no addition

`CC(=O)NC1C(OC2CC(C(=O)NCCS(=O)(=O)O)NC2CO)OC(CO)C(OS(=O)(=O)O)C1O` (stereo not drawn) [F2] was tested, and the “Diameter of growth inhibition zone” value ([1]; F2 of Example 1, 1 μg/ml in test solution, 0.03 μg/ml mecillinam) was less than 8 mm, the “Diameter of growth inhibition zone” value ([1]; F2 of Example 1, 1 μg/ml in test solution, 0.05 μg/ml cefmenoxime) was 10 mm and the “Diameter of growth inhibition zone” value [1, 5] was less than 8 mm. The “Diameter of growth inhibition zone” value ([1]; F2 of Example 1, 5 μg/ml in test solution, 0.03 μg/ml mecillinam) was 10 mm, the “Diameter of growth inhibition zone” value ([1]; F2 of Example 1, 5 μg/ml in test solution, 0.05 μg/ml cefmenoxime) was 15 mm and the “Diameter of growth inhibition zone” value [1, 6] was less than 8 mm. The “Diameter of growth inhibition zone” value ([1]; F2 of Example 1, 25 μg/ml in test solution, 0.03 μg/ml mecillinam) was 18 mm, the “Diameter of growth inhibition zone” value ([1]; F2 of Example 1, 25 μg/ml in test solution, 0.05 μg/ml cefmenoxime) was 24 mm and the “Diameter of growth inhibition zone” value [1, 7] was less than 8 mm. The “Diameter of growth inhibition zone” value ([1]; F2 of Example 1, 125 μg/ml in test solution, 0.03 μg/ml mecillinam) was 24 mm, the “Diameter of growth inhibition zone” value ([1]; F2 of Example 1, 125 μg/ml in test solution, 0.05 μg/ml cefmenoxime) was 32 mm and the “Diameter of growth inhibition zone” value [1, 8] was less than 8 mm. The “Diameter of growth inhibition zone” value ([1]; F2 of Example 1, 1000 μg/ml in test solution, 0.03 μg/ml mecillinam) was 30 mm, the “Diameter of growth inhibition zone” value ([1]; F2 of Example 1, 1000 μg/ml in test solution, 0.05 μg/ml cefmenoxime) was 40 mm and the “Diameter of growth inhibition zone” value [1, 9] was less than 8 mm. The “Diameter of growth inhibition zone” value ([1]; F2 of Example 3, 1 μg/ml in test solution, 0.03 μg/ml mecillinam) was less than 8 mm, the “Diameter of growth inhibition zone” value ([1]; F2 of Example 3, 1 μg/ml in test solution, 0.05 μg/ml cefmenoxime) was 9 mm and the “Diameter of growth inhibition zone” value [1, 10] was less than 8 mm. For the same molecule, the “Diameter of growth inhibition zone” value ([1]; F2 of Example 3, 5 μg/ml in test solution, 0.03 μg/ml mecillinam) was 9 mm, the “Diameter of growth inhibition zone” value ([1]; F2 of Example 3, 5 μg/ml in test solution, 0.05 μg/ml cefmenoxime) was 14 mm and the “Diameter of growth inhibition zone” value [1, 11] was less than 8 mm. The “Diameter of growth inhibition zone” value ([1]; F2 of Example 3, 25 μg/ml in test solution, 0.03 μg/ml mecillinam) was 19 mm, the “Diameter of growth inhibition zone” value ([1]; F2 of Example 3, 25 μg/ml in test solution, 0.05 μg/ml cefmenoxime) was 23 mm and the “Diameter of growth inhibition zone” value [1, 12] was less than 8 mm. The “Diameter of growth inhibition zone” value ([1]; F2 of Example 3, 125 μg/ml in test solution, 0.03 μg/ml mecillinam) was 23 mm, the “Diameter of growth inhibition zone” value ([1]; F2 of Example 3, 125 μg/ml in test solution, 0.05 μg/ml cefmenoxime) was 31 mm and the “Diameter of growth inhibition zone” value [1, 13] was less than 8 mm. The “Diameter of growth inhibition zone” value ([1]; F2 of Example 3, 1000 μg/ml in test solution, 0.03 μg/ml mecillinam) was 29 mm, the “Diameter of growth inhibition zone” value ([1]; F2 of Example 3, 1000 μg/ml in test solution, 0.05 μg/ml cefmenoxime) was 39 mm and the “Diameter of growth inhibition zone” value [1, 14] was less than 8 mm. For the same molecule, the “Diameter of growth inhibition zone” value ([2]; F2 of Example 1, 1 μg/ml in test solution, 0.01 μg/ml cefmenoxime) was 9 mm, the “Diameter of growth inhibition zone” value ([2]; F2 of Example 1, 1 μg/ml in test solution, 0.05 μg/ml mecillinam) was 9 mm and the “Diameter of growth inhibition zone” value [2, 5] was less than 8 mm. The “Diameter of growth inhibition zone” value ([2]; F2 of Example 1, 5 μg/ml in test solution, 0.01 μg/ml cefmenoxime) was 13 mm, the “Diameter of growth inhibition zone” value ([2]; F2 of Example 1, 5 μg/ml in test solution, 0.05 μg/ml mecillinam) was 11 mm and the “Diameter of growth inhibition zone” value [2, 6] was less than 8 mm. The “Diameter of growth inhibition zone” value ([2]; F2 of Example 1, 25 μg/ml in test solution, 0.01 μg/ml cefmenoxime) was 23 mm, the “Diameter of growth inhibition zone” value ([2]; F2 of Example 1, 25 μg/ml in test solution, 0.05 μg/ml mecillinam) was 19 mm and the “Diameter of growth inhibition zone” value [2, 7] was less than 8 mm. The “Diameter of growth inhibition zone” value ([2]; F2 of Example 1, 125 μg/ml in test solution, 0.01 μg/ml cefmenoxime) was 30 mm, the “Diameter of growth inhibition zone” value ([2]; F2 of Example 1, 125 μg/ml in test solution, 0.05 μg/ml mecillinam) was 26 mm and the “Diameter of growth inhibition zone” value [2, 8] was less than 8 mm. The “Diameter of growth inhibition zone” value ([2]; F2 of Example 1, 1000 μg/ml in test solution, 0.01 μg/ml cefmenoxime) was 38 mm, the “Diameter of growth inhibition zone” value ([2]; F2 of Example 1, 1000 μg/ml in test solution, 0.05 μg/ml mecillinam) was 32 mm and the “Diameter of growth inhibition zone” value [2, 9] was less than 8 mm. The “Diameter of growth inhibition zone” value ([2]; F2 of Example 3, 1 μg/ml in test solution, 0.01 μg/ml cefmenoxime) was 9 mm, the “Diameter of growth inhibition zone” value ([2]; F2 of Example 3, 1 μg/ml in test solution, 0.05 μg/ml mecillinam) was 9 mm and the “Diameter of growth inhibition zone” value [2, 10] was less than 8 mm. The “Diameter of growth inhibition zone” value ([2]; F2 of Example 3, 5 μg/ml in test solution, 0.01 μg/ml cefmenoxime) was 12 mm, the “Diameter of growth inhibition zone” value ([2]; F2 of Example 3, 5 μg/ml in test solution, 0.05 μg/ml mecillinam) was 12 mm and the “Diameter of growth inhibition zone” value [2, 11] was less than 8 mm. For the same molecule, the “Diameter of growth inhibition zone” value ([2]; F2 of Example 3, 25 μg/ml in test solution, 0.01 μg/ml cefmenoxime) was 22 mm, the “Diameter of growth inhibition zone” value ([2]; F2 of Example 3, 25 μg/ml in test solution, 0.05 μg/ml mecillinam) was 19 mm and the “Diameter of growth inhibition zone” value [2, 12] was less than 8 mm. The “Diameter of growth inhibition zone” value ([2]; F2 of Example 3, 125 μg/ml in test solution, 0.01 μg/ml cefmenoxime) was 29 mm, the “Diameter of growth inhibition zone” value ([2]; F2 of Example 3, 125 μg/ml in test solution, 0.05 μg/ml mecillinam) was 25 mm and the “Diameter of growth inhibition zone” value [2, 13] was less than 8 mm. The “Diameter of growth inhibition zone” value ([2]; F2 of Example 3, 1000 μg/ml in test solution, 0.01 μg/ml cefmenoxime) was 38 mm, the “Diameter of growth inhibition zone” value ([2]; F2 of Example 3, 1000 μg/ml in test solution, 0.05 μg/ml mecillinam) was 32 mm and the “Diameter of growth inhibition zone” value [2, 14] was less than 8 mm. For the same molecule, the “Absorbance at 600 nm” value ([3]; final F2 (Example 1) 1 μg/ml, 1 μg/ml cefmenoxime) was 0.60, the “Absorbance at 600 nm” value ([3]; final F2 (Example 1) 1 μg/ml, 5 μg/ml cephalexin) was 1.80 and the “Absorbance at 600 nm” value ([3]; final F2 (Example 1) 1 μg/ml, no addition) was 2.65. The “Absorbance at 600 nm” value ([3]; final F2 (Example 1) 10 μg/ml, no addition) was 2.65, the “Inhibition of growth of Escherichia coli” value ([3]; in the presence of cephalexin or cefmenoxime, decrease in absorbance) was “inhibits the growth of Escherichia coli” and the “Swelling and bacteriolysis under phase contrast microscope” value (Escherichia coli) was “partial swelling occurred and bacteriolysis proceeded”. The “Elongation of cells under phase contrast microscope” value (Escherichia coli; in dependence on the addition level) was “elongation was inhibited”, the “Absorbance at 600 nm” value ([4]; final F2 (Example 1) 10 μg/ml, 1 μg/ml cefmenoxime) was 0.25 and the “Absorbance at 600 nm” value ([4]; final F2 (Example 1) 10 μg/ml, 5 μg/ml cephalexin) was 1.00. The “Absorbance at 600 nm” value ([4]; final F2 (Example 1) 100 μg/ml, 1 μg/ml cefmenoxime) was 0.30, the “Absorbance at 600 nm” value ([4]; final F2 (Example 1) 100 μg/ml, 5 μg/ml cephalexin) was 0.95 and the “Absorbance at 600 nm” value ([4]; final F2 (Example 1) 100 μg/ml, no addition) was 2.70. For the same molecule, the “Absorbance at 600 nm” value ([4]; final F2 (Example 3) 1 μg/ml, 1 μg/ml cefmenoxime) was 0.55, the “Absorbance at 600 nm” value ([4]; final F2 (Example 3) 1 μg/ml, 5 μg/ml cephalexin) was 1.75 and the “Absorbance at 600 nm” value ([4]; final F2 (Example 3) 1 μg/ml, no addition) was 2.45. The “Absorbance at 600 nm” value ([4]; final F2 (Example 3) 10 μg/ml, 1 μg/ml cefmenoxime) was 0.25, the “Absorbance at 600 nm” value ([4]; final F2 (Example 3) 10 μg/ml, 5 μg/ml cephalexin) was 1.90 and the “Absorbance at 600 nm” value ([4]; final F2 (Example 3) 10 μg/ml, no addition) was 2.50. The “Absorbance at 600 nm” value ([4]; final F2 (Example 3) 100 μg/ml, 1 μg/ml cefmenoxime) was 0.25, the “Absorbance at 600 nm” value ([4]; final F2 (Example 3) 100 μg/ml, 5 μg/ml cephalexin) was 0.75 and the “Absorbance at 600 nm” value ([4]; final F2 (Example 3) 100 μg/ml, no addition) was 2.55.
